Like-named read-outs stand apart in the source and are kept apart here.
Type: in vivo
Settings: for Cardiac Index, slope of percentage change from baseline (Slope ± SE) / Pulmonary capillary wedge pressure, slope of percentage change from baseline (Slope ± SE) / Systolic Blood Pressure, slope of percentage change from baseline (Slope ± SE): per hour; for Cardiac Index, slope of percentage change from baseline (Slope ± SE) / Pulmonary capillary wedge pressure, slope of percentage change from baseline (Slope ± SE) / Systolic Blood Pressure, slope of percentage change from baseline (Slope ± SE) / Heart Rate, slope of percentage change from baseline (Slope ± SE): first 24 postoperative hours; for Heart Rate, slope of percentage change from baseline (Slope ± SE): percentage change per hour; for absolute mean heart rate: 24 hours after surgery; for patients who received dopamine / use of any inotropic agent: first 7 days after surgery; for patients who received dopamine: placebo 77%; for use of any inotropic agent: placebo 79%; for insertions of an intraaortic balloon pump for low cardiac output: nine in placebo group; for death rate: placebo 6.0%
Protocol: A double blind, placebo controlled trial was performed on 253 patients randomized into three groups. The objective of the study was to evaluate the safety, tolerance and efficacy of adenosine in patients undergoing coronary artery bypass surgery. Inadequate myocardial protection in patients undergoing coronary artery bypass surgery contributes to overall hospital mortality and morbidity.
The treatments included the intraoperative administration of cold blood cardioplegia, blood cardioplegia including 500 μM adenosine (“low dose adenosine”), and blood cardioplegia including 200 mM adenosine (“high dose adenosine”). Patients receiving adenosine were also given an infusion of adenosine (200 μg/kg/min) 10 minutes before and 15 minutes after removal of the aortic crossclamp. Invasive and non-invasive measurements of ventricular performance were obtained before, during and after surgery.
Exclusion criteria included known or suspected pregnancy, known hypersensitivity to adenosine, and enrollment in another clinical trial study.
Study Design: 253 patients were split into three groups. Group A patients (n=84) received placebo and were given standard hyperkalemic cold blood cardioplegia. Group B patients (low dose adenosine, n=84) were given hyperkalemic cold blood cardioplegia containing 500 μM adenosine. Group C patients (high dose adenosine) were given hyperkalemic cold blood cardioplegia containing 200 mM adenosine. The patients who received adenosine cardioplegia were also exposed to a 10 minute infusion of adenosine pre-treatment (200 μg/kg/min) immediately before application of the aortic crossclamp and a 15 minute infusion of adenosine immediately after removing the crossclamp.
Before surgery, patients were evaluated for the degree of ischemic disease by history, echocardiography, and cardiac catheterization. In the operating room, hemodynamic measurements were obtained and recorded just before initiating cardiopulmonary bypass and 15, 30, 45 and 60 minutes and 2, 3, 4, 5, and 8 hours after cessation of bypass. In patients requiring intravenous inotropic medications in the postoperative period, hemodynamic monitoring was continued with measurements of specified parameters every 2 hours for 24 hours, and then every 4 hours until the inotropic medications were discontinued or it was ascertained that monitoring was no longer helpful in the management of the patient.
Invasive hemodynamic measurements included systolic blood pressure, heart rate, central venous pressure, pulmonary artery pressure, pulmonary capillary wedge pressure and cardiac output. The cardiac index, stroke volume, systemic vascular resistance, pulmonary vascular resistance, right ventricular stroke work index and left ventricular stroke index were derived. The cardiac output measurements were obtained using a thermodilution catheter and computer. Noninvasive heart function studies included 12-lead electrocardiograms, preoperative stress dobutamine echocardiography, and pre- and post-operative transthoracic and transesophageal echocardiograms. Patients were monitored from the time of enrollment to follow-up 4 to 6 weeks after discharge from the hospital. This included routine blood work and chemistries, arterial blood gases, pH, creatine kinase (CK)-MB concentrations, and pulse oximetry.
The primary endpoints of the study were reduction in total dopamine use during the first 7 days, reduction in all inotropic support required during the first 7 days, reduction in the use of dopamine to less than 5 μg/kg/min.
There were 21 secondary endpoints, including improvement in postoperative hemodynamics, reduction in the use of the intraaortic balloon pump, reduction in the incidence of myocardial infarction, and decrease in the mortality rate.
All patients who received study treatment and underwent coronary bypass surgery were included in the intent-to-treat analysis. […]

[1] = Group B, low dose adenosine (500 μM cardioplegia + infusion)
[2] = Group C, high dose adenosine (200 mM cardioplegia + infusion)

## Nc1ncnc2c1ncn2[C@@H]1O[C@H](CO)[C@@H](O)[C@H]1O [adenosine]
[1]
  Cardiac Index, slope of percentage change from baseline (Slope ± SE): 1.130 ± 0.105
  Pulmonary capillary wedge pressure, slope of percentage change from baseline (Slope ± SE): 0.688 ± 0.249
  Systolic Blood Pressure, slope of percentage change from baseline (Slope ± SE): 0.387 ± 0.060
Group B, low dose adenosine (500 μM in cold blood cardioplegia + 200 μg/kg/min infusion)
  Heart Rate, slope of percentage change from baseline (Slope ± SE): 0.510 ± 0.078
[2]
  Cardiac Index, slope of percentage change from baseline (Slope ± SE): 1.468 ± 0.112
  Pulmonary capillary wedge pressure, slope of percentage change from baseline (Slope ± SE): −0.869 ± 0.288
  Systolic Blood Pressure, slope of percentage change from baseline (Slope ± SE): 0.440 ± 0.063
Group C, high dose adenosine (200 mM in cold blood cardioplegia + 200 μg/kg/min infusion)
  Heart Rate, slope of percentage change from baseline (Slope ± SE): 0.820 ± 0.081
High dose adenosine group versus placebo
  high-dose dopamine support (>5 μg/kg/min): trend toward a decrease
High dose adenosine group
  absolute mean heart rate: 96.8±5.4 beats per minute
  patients who received dopamine: 79%
  use of any inotropic agent: 80%
  insertions of an intraaortic balloon pump for low cardiac output: five
  death rate: 1.2%
High dose adenosine group, placebo 9.5%
  postoperative MI rate: 1.2%
High dose adenosine versus placebo, p=0.006
  percentage of patients experiencing one of the composite adverse events (high dose dopamine, epinephrine use, intraaortic balloon pump, MI, death): lower
human, in vivo
  safety and tolerance: safe and well tolerated
Low dose adenosine group
  absolute mean heart rate: 90.7±3.6 beats per minute
  patients who received dopamine: 71%
  use of any inotropic agent: 73%
  insertions of an intraaortic balloon pump for low cardiac output: two
  death rate: 3.6%
